Reference: patent US20240166658A1, “PORPHYRIN DERIVATIVES AND USES THEREOF” (University of Tasmania, priority 2021, published 2024)

Tests used:
[1] = Colorimetric calibration chart, RGB response to known PFOA concentrations; details: PFOA 0.7 ppm, dichloromethane
Protocol: The host molecules were combined with known concentrations of PFOA to provide RGB colour responses, which were used to create a colorimetric calibration chart that could be trialled as an indicator for estimating the total concentration of a range of any PFCAs. Solutions of each host molecule (1.00×10^−5 M) were prepared in dichloromethane. Solutions of PFOA in dichloromethane were prepared across a range of concentrations (0→16 ppm, 4.00×10^−5 M). Each host (2 mL) was combined with each PFOA concentration (1 mL, final concentration 0→1.33×10^−5 M) and photographed under equivalent lighting conditions. The average colour of each solution was then found using ImageJ RGB analysis, and a colour chart was produced.
For this reason, parametrization of the RGB values can be useful for interpreting results. The RGB response parameter can be calculated using the RGB values of the “blank” host solution (Šafranko et al., 2019) and the effective intensities of the individual RGB values of a sample (Tahir et al., 2016):
Here, H, indicates the values for the host solution, and S, indicates the response for a sample containing a PFCA, so that ΔR, ΔG, and ΔB give the colour differences. The RGB parameter is the response due to the relative difference in the RGB intensities:
The RGB values collected for each host with a range of known concentrations of PFOA in dichloromethane were parameterized and used to determine a relationship between concentration of analyte and RGB response values. […] The relationship between RGB response values and concentrations of PFOA could now be tested for accuracy in determining the concentration of any PFCA.

[2] = UV-Vis host-guest titration, association constant; assay type: binding
Protocol: Path length of the quartz cell was 1 cm. For UV-vis titrations, a stock solution of host was prepared (2.2×10^−3 M) in dichloromethane (DCM) and serially diluted to the required concentrations. Working solutions of tetrabutylammonium (TBA) anion salts or guest molecules were prepared in the same manner Host−guest titrations used solutions of guest prepared in the working concentration of host solution, according to the procedure of Thordarson, 2011.
UV-vis spectroscopic host−guest titrations were performed in accordance with the methodologies of Thordarson, 2011. Solutions of host in dichloromethane were prepared. Solutions of guest were then prepared in the host solution. Aliquots of guest in host solution were added to host solution and sequentially analysed until a known molar equivalent of guest was added. The amount of guest added per aliquot was ascertained by a preliminary screening experiment; strong association constants required smaller molar equivalents so more information could be collected. […] The inverse is true for weaker binding interactions. Molar equivalents between 0.1-5 typically provided adequate information for modelling. The data was then used to simulate binding isotherms using www.supramolecular.org (Hibbert and Thordarson, 2016). The data was fitted to 1:1, 1:2 and 2:1 equilibria making no assumptions about the cooperativity of the binding interactions and modelled using different algorithms. These experiments mainly used the Nelder-Mead (Simplex) method.
UV-Vis spectroscopy binding studies were used to determine the association constant for the host (9)−PFOA complex.
A host solution of host (9) in dichloromethane was monitored using UV-Vis analysis as 0.5-10 equivalents of each PFAS was added. […] The data was processed using Bindfit isotherm simulators using both Nelder-Mead and L-BFGS-B methods (Thordarson, 2011).
To highlight any potential binding preferences across the PFCAs from the host molecules, triplicates of host−guest addition titrations were performed using host (9) and the TBA salts of the nine different deprotonated PFCAs.

[3] = PFCA guest response across the nine PFCAs (UV-Vis, RGB, one-way ANOVA variance); details: dichloromethane
Protocol: Experiments were performed at concentrations that could be monitored by the naked eye for practical sensing of PFAS in the field. Complexes of hosts (9), (11) and (12) were formed with the nine different perfluorocarboxylic acids (PFCAs) shown in Table 2 above and the colours of each host−PFCA complex were photographed in a lightbox and analysed using ImageJ software RGB analysis. Pixels of the solution were chosen at random to provide an RGB value. Multiple RGB values were recorded for each host−PFCA solution, and an average colour can be produced. From those values an RGB parameter was used to give a response value for modelling (Tahir et al., 2016).
After preliminary screenings, UV-Vis spectra were collected before and after the addition of 1 molar equivalent of each PFCA for each host, and the degree of complexation was noted by shifts in the Soret bands and formation of a peak at ca. 650 nm. To eliminate dilution effects, PFCA guest solutions were prepared in the equivalent concentration of host. If there was a notable host−guest interaction for a particular PFCA, the host−guest binding was investigated with more rigorous UV-Vis experiments, binding studies, and further colour analyses. Throughout these investigations, PFOA was considered the “average” PFCA both because of its position in the range of PFCA sizes and because its prevalence is often an indication of broader PFAS contamination. In any experiment where binding was further investigated for a particular PFCA, it was typically replicated with PFOA for comparison.
One-way factorial ANOVA was used to examine the dependence (or independence) of two or more factors affecting the dependent variable concurrently, in the present case the change in absorption, or the change in RGB response across the tested PFCAs, or across the different hosts. This analysis was used to determine the variance in the responses of each host across the different PFCAs. […]

[4] = short, medium and long chain sensor molecules with PFOA

O=C(Nc1ccccc1-c1c2nc(c(-c3ccccc3NC(=O)C(F)(F)C(F)(F)C(F)(F)C(F)(F)C(F)(F)C(F)(F)C(F)(F)F)c3ccc([nH]3)c(-c3ccccc3NC(=O)C(F)(F)C(F)(F)C(F)(F)C(F)(F)C(F)(F)C(F)(F)C(F)(F)F)c3nc(c(-c4ccccc4NC(=O)C(F)(F)C(F)(F)C(F)(F)C(F)(F)C(F)(F)C(F)(F)C(F)(F)F)c4ccc1[nH]4)C=C3)C=C2)C(F)(F)C(F)(F)C(F)(F)C(F)(F)C(F)(F)C(F)(F)C(F)(F)F [host (9), α,α,α,α-5,10,15,20-tetrakis(2-(pentadecafluorooctanoylamino)phenyl)porphyrin]
ΔE between host and lowest PFOA concentration [1]: 11
association constant (Ka) ([2]; host 1.01×10^−6 M in dichloromethane, TBAPFO aliquots, 1:1, Nelder-Mead and L-BFGS-B): ~2.8e+06 M⁻¹
K value (averaged association constant Ka) ([2]; host (9) in dichloromethane, triplicate, TBA salt and acid, Bindfit): 109574
K [2, 4]: 1.77e+06 M⁻¹
colorimetric response to all nine PFCAs [3]: colorimetric response was visible

O=C(Nc1ccccc1-c1c2nc(c(-c3ccccc3NC(=O)C(F)(F)C(F)(F)C(F)(F)C(F)(F)C(F)(F)C(F)(F)C(F)(F)C(F)(F)C(F)(F)C(F)(F)C(F)(F)F)c3ccc([nH]3)c(-c3ccccc3NC(=O)C(F)(F)C(F)(F)C(F)(F)C(F)(F)C(F)(F)C(F)(F)C(F)(F)C(F)(F)C(F)(F)C(F)(F)C(F)(F)F)c3nc(c(-c4ccccc4NC(=O)C(F)(F)C(F)(F)C(F)(F)C(F)(F)C(F)(F)C(F)(F)C(F)(F)C(F)(F)C(F)(F)C(F)(F)C(F)(F)F)c4ccc1[nH]4)C=C3)C=C2)C(F)(F)C(F)(F)C(F)(F)C(F)(F)C(F)(F)C(F)(F)C(F)(F)C(F)(F)C(F)(F)C(F)(F)C(F)(F)F [host (12), α,α,α,α-5,10,15,20-tetrakis(2-(tricosafluorododecanoylamino)phenyl) porphyrin]
ΔE between host and lowest PFOA concentration [1]: 24
K ([2]; 1 Host:1 Guest binding mode): 1.58 × 10^5
K11 ([2]; 1 Host:2 Guest binding mode): 1.49 × 10^7
K12 ([2]; 1 Host:2 Guest binding mode): 1.17 × 10^2
K [2, 4]: 1.67e+06 M⁻¹
colorimetric response to all nine PFCAs [3]: provided a colorimetric response
